Results reported in ChEMBL document CHEMBL1201862, “PubChem BioAssay data set” (2004).
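All cell lines were grown in 96-well plates and treated with compound for 48 hours. GI50 marks 50% less growth.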 Activity calls are given as the source filed them. Cut-off read from the data, not from the text of the source: active = GI50 up to about 1.1 µM and inactive = higher.

Legend:
Assay in all cases: inhibition of tumour cell growth, NCI panel, 48 h
T47D = tested on: T47D
MOLT-4 = tested on: MOLT-4
BT-549 = tested on: BT-549
HL-60 = tested on: HL-60
UACC-257 = tested on: UACC-257
RPMI-8226 = tested on: RPMI-8226
IGROV-1 = tested on: IGROV-1
SN12C = tested on: SN12C
RXF 393 = tested on: RXF 393
OVCAR-8 = tested on: OVCAR-8
ACHN = tested on: ACHN
OVCAR-3 = tested on: OVCAR-3
MDA-N = tested on: MDA-N
SK-MEL-28 = tested on: SK-MEL-28
EKVX = tested on: EKVX
CAKI-1 = tested on: CAKI-1
HCT-15 = tested on: HCT-15
K562 = tested on: K562
SNB-75 = tested on: SNB-75

Row | Compound | GI50 (T47D) | GI50 (MOLT-4) | GI50 (BT-549) | GI50 (HL-60) | GI50 (UACC-257) | GI50 (RPMI-8226) | GI50 (IGROV-1) | GI50 (SN12C) | GI50 (RXF 393) | GI50 (OVCAR-8) | GI50 (ACHN) | GI50 (OVCAR-3) | GI50 (MDA-N) | GI50 (SK-MEL-28) | GI50 (EKVX) | GI50 (CAKI-1) | GI50 (HCT-15) [µM] | GI50 (K562) | GI50 (SNB-75)
1 | Fc1ccc(Nc2nnc(-c3ccccn3)s2)cc1 | 5.22 µM (inactive) | > 100 µM (inactive) | > 100 µM (inactive) | > 100 µM (inactive) | > 100 µM (inactive) | > 100 µM (inactive) | > 100 µM (inactive) | > 100 µM (inactive) | > 100 µM (inactive) | > 100 µM (inactive) | > 100 µM (inactive) | > 100 µM (inactive) | > 100 µM (inactive) | > 100 µM (inactive) | > 100 µM (inactive) | > 100 µM (inactive) | > 100 |  | 
2 | COc1cc(/C=C2/SC(c3ccccc3)N(c3ccc(NC(C)=O)cc3)C2=O)cc(OC)c1OC (stereo not given) | 84.3 µM (inactive) | 31.3 µM (inactive) | > 100 µM (inactive) | 66.4 µM (inactive) | > 100 µM (inactive) | 36.8 µM (inactive) |  | > 100 µM (inactive) | 64.4 µM (inactive) | > 100 µM (inactive) | > 100 µM (inactive) | > 100 µM (inactive) | 82.6 µM (inactive) | > 100 µM (inactive) | > 100 µM (inactive) | > 100 µM (inactive) | > 100 | 49.4 µM (inactive) | 
3 | CC(C)(C)COC1C2(OCCO2)C2CCC1(C)C2(C)C (stereo not given) | 23.8 µM (inactive) | 21.4 µM (inactive) |  | 24.8 µM (inactive) | 24.9 µM (inactive) | 19.9 µM (inactive) | 82.8 µM (inactive) |  | 19.6 µM (inactive) | 23.1 µM (inactive) | 20.4 µM (inactive) | 17.6 µM (inactive) | 43.2 µM (inactive) | 87.1 µM (inactive) | 33.7 µM (inactive) | 40.1 µM (inactive) | 22.4 | 18.5 µM (inactive) | 24.1 µM (inactive)
4 | O=C(Cn1c(=O)oc2ccc(C(=O)c3ccc(F)cc3)cc21)c1ccc([N+](=O)[O-])cc1 | 24.7 µM (inactive) | 18.2 µM (inactive) |  | 8.2 µM (inactive) | 60.3 µM (inactive) | 22.2 µM (inactive) | 24.3 µM (inactive) | 60.3 µM (inactive) | 27.3 µM (inactive) | 25.8 µM (inactive) | 35 µM (inactive) |  | 21 µM (inactive) | 45.3 µM (inactive) |  | 47.6 µM (inactive) | 20.9 | 28.3 µM (inactive) | 36.9 µM (inactive)
5 | CCOC(=O)Cc1cc(=O)oc2cc(O)ccc12 |  | > 100 µM (inactive) | > 100 µM (inactive) | > 100 µM (inactive) | > 100 µM (inactive) | > 100 µM (inactive) | > 100 µM (inactive) | > 100 µM (inactive) | > 100 µM (inactive) | > 100 µM (inactive) | > 100 µM (inactive) | > 100 µM (inactive) | > 100 µM (inactive) | > 100 µM (inactive) | > 100 µM (inactive) | > 100 µM (inactive) | > 100 | > 100 µM (inactive) | > 100 µM (inactive)
6 | O=C1O[C@H](c2ccc3c(c2)OCO3)[C@H]2CO[C@@H](c3ccc4c(c3)OCO4)[C@@H]12 |  | 43.5 µM (inactive) | > 100 µM (inactive) | > 100 µM (inactive) | 54.6 µM (inactive) | 33.9 µM (inactive) | > 100 µM (inactive) | > 100 µM (inactive) | > 100 µM (inactive) | > 100 µM (inactive) | > 100 µM (inactive) |  | > 100 µM (inactive) | > 100 µM (inactive) | > 100 µM (inactive) | 77.8 µM (inactive) | > 100 | 60.1 µM (inactive) | 
7 | CN1CCCN(C)CCCN(C)CCCN(C)CCC1 | > 100 µM (inactive) | > 100 µM (inactive) | > 100 µM (inactive) |  | > 100 µM (inactive) | > 100 µM (inactive) | > 100 µM (inactive) |  | > 100 µM (inactive) | > 100 µM (inactive) | > 100 µM (inactive) | > 100 µM (inactive) | > 100 µM (inactive) | > 100 µM (inactive) | > 100 µM (inactive) | > 100 µM (inactive) | > 100 | > 100 µM (inactive) | 
8 | CCc1nnc(CC)n1-n1c(Cc2ccccc2)n[nH]c1=O |  | > 100 µM (inactive) | > 100 µM (inactive) |  | > 100 µM (inactive) | > 100 µM (inactive) | > 100 µM (inactive) | > 100 µM (inactive) | > 100 µM (inactive) | > 100 µM (inactive) | > 100 µM (inactive) | > 100 µM (inactive) | > 100 µM (inactive) | > 100 µM (inactive) | > 100 µM (inactive) |  | > 100 | > 100 µM (inactive) | > 100 µM (inactive)
9 | COc1cc2c(c(OC)c1)/C(=C/Sc1ccccc1)C(=O)N(C(C)(C)C)C2 | 26.7 µM (inactive) | 21.3 µM (inactive) | 26 µM (inactive) | 25 µM (inactive) | 30.6 µM (inactive) | 26.1 µM (inactive) | 22.3 µM (inactive) | 24 µM (inactive) |  | 25.6 µM (inactive) | 35.3 µM (inactive) | 22.5 µM (inactive) | 23.5 µM (inactive) | 38.9 µM (inactive) | 29.6 µM (inactive) | 32.7 µM (inactive) | 30.3 | 37.8 µM (inactive) | 
